Measured values taken from patent publication US6632616B2, “Compounds that selectively bind to expanded polyglutamine repeat domains and methods of use thereof” (Duke University, priority 2000, dated 2003).

Assays:
[1] = system: COS 7 cells expressing Q81-YFP; assay: Peptides added to transfected COS 7 cells expressing Q81-YFP: cell death; type: cell-based; settings: for effect on cell death (in words): peptide added to cells
Description: (§1) Several proteins can ferry peptides or proteins into cells through the plasma membrane including HIV transactivator protein (TAT) (SEQ ID NO:37), antennapedia (SEQ ID NO:38), and herpes simplex virus type 1 protein 22 (SEQ ID NO:39) (Prochiantz, Curr Opin Cell Biol. 12:400-406 (2000)). […] The arginine-rich domains of these proteins are sufficient to transport some intact proteins even when fused to non-native proteins. The ability of polyglutamine-binding peptides fused to a TAT fragment to enter transfected COS 7 cells and inhibit polyglutamine aggregation and cell death was examined.

[2] = system: thio-Q62; assay: Thioredoxin-polyglutamine turbidity (aggregation) assay, thio-Q62; type: biochemical; settings: for Ability to Inhibit Aggregation: 62 glutamines, 10 days
Experimental: (§2) Turbidity assays were performed in 200 μl reactions consisting of thioredoxin-polyglutamine in PBS in 96-well, low protein binding plates. Plates were incubated at 4° C. and turbidity measured at 405 nm on a Thermo Max plate reader (Molecular Devices).
(§3) Peptides were synthesized at the Howard Hughes Medical Institute peptide sequencing facility at Duke University with an acetylated amino terminus and protection of tryptophan with BOC during synthesis. Identical results were obtained with peptides obtained from Bio-Synthesis Inc. (Lewisville, Tex.). Stock solutions of peptides were prepared fresh daily by dissolving in dimethyl sulfoxide at 2.5 mM and incubated with thioredoxin-polyglutamine protein at 0.25-25 μM.
(§4) To monitor thioredoxin-polyglutamine protein aggregation a turbidometric assay was developed, similar to the assays commonly used to study microtubule assembly and β-amyloid aggregation (Jarrett, J. T. et al. (1993) Biochem 32, 4693-4697; Sloboda, R. D. et al. (1976) Biochem 15, 4497-4505). Solutions of thio-Q62 and 81 protein increased turbidity in a polyglutamine length-, time- and concentration-dependent manner (FIG. 1B and C; Time dependence of aggregation of thioredoxin-polyglutamine with 81 glutamines not shown). […] The pelleted and retained material was confirmed as thioredoxin-polyglutamine fusion protein containing 62 or 81 glutamines on western blots probed with anti-thioredoxin or anti-polyglutamine antibody (not shown). In contrast, thioredoxin-polyglutamine protein containing 19 or 35 glutamines (thio-Q19 or 35) was not pelleted by centrifugation and was not trapped by a 0.22 μm filter.

[3] = system: Q81-YFP; assay: Peptides added to transfected COS 7 cells expressing Q81-YFP: aggregation; type: cell-based
Description: as §1

[4] = system: polyglutamine; assay: In vitro polyglutamine aggregation, polyarginine transport peptide; type: biochemical
[5] = system: Q57-YFP induced cell death; assay: Q57-YFP induced cell death in co-transfected COS-7 cells (ethidium homodimer); type: cell-based; settings: peptides fused to CFP, co-expressed; COS-7, 48 hours; ethidium homodimer
Experimental: FIG. 5. […] Open bar=cells co-transfected with Q57-YFP and RAN-CFP. Hatched bar=cells co-transfected with Q57-YFP and SCR-CFP. Filled bar=cells co-transfected with Q57-YFP and QBP1-CFP. Dotted bar=cells co-transfected with Q57-YFP and (QBPI)2-CFP. COS-7 cells examined 48 hours after transfection using a Zeiss fluorescence microscope with rhodamine filter set. The percentage of dead cells was calculated by counting the number of transfected cells stained with ethidium homodimer and dividing by the total number of transfected cells multiplied times 100. In each experiment at least 200 transfected cells were counted. Experiments were repeated at least three times. Error bars represent standard errors. *=p<0.05; **=p<0.01 (Student's t-test).
COS-7 cells were grown and maintained in Dulbecco's modified Eagles' medium (DMEM) supplemented with 10% fetal calf serum (FCS). Cells were transfected with Effectene according to manufacturer's instructions (Qiagen GmbH, Hilden, Germany). Cells were examined 48 hours after transfection using a Zeiss fluorescence microscope equipped with YFP/CFP filter sets (Omega Optical Inc., Brattleboro, Vt.). The percentage of cells with aggregates was calculated by dividing the number of cells with aggregates by the total number of fluorescent cells, multiplied by 100. Cell viability was examined 48 hours after transfection using ehtidium homodimer (Molecular Probes, Eugene, Oreg.). Cells were incubated with 5 μM ethidium homodimer for 30 minutes (37° C.) and then examined under a fluorescence microscope equipped with a rhodamine filter set. Cells with nuclear fluorescence were counted as dead. In each experiment at least 200 transfected cells were counted. Cells expressing random peptide-CFP (RAN-CFP) and polyglutamine-YFP (Qn-YFP) were used as a control to calculate the relative difference in aggregate formation and cell death. Experiments were repeated at least four times.
The relationship between polyglutamine protein aggregation and cell death is controversial. To determine whether QBP1 or tandem-QBP1 inhibit polyglutamine-induced cell death, cell membrane permeability to ethidium homodimer was assayed. The membranes of living cells are impermeable to ethidium homodimer and permeability to ethidium homodimer is a well-established measure of cell death. Ethidium homodimer undergoes a 30-fold increase in fluorescence upon binding to nucleic acid allowing easy detection with a fluorescence microscope using a rhodamine filter. QBP1 and tandem QBP1 ((QBP1)2) fused to CFP inhibit Q57-YFP induced cell death (FIG. 5). […] Similar results have also been observed with Q45- and Q81-YFP (not shown).

[6] = system: thio-Q19 or 35; assay: Thioredoxin-polyglutamine turbidity assay, nonpathologic thio-Q19 or 35; type: biochemical
Experimental: as §2, §3, §4

[7] = 5 μm peptide and 15 μM thio-polyglutamine
[8] = versus random peptide fused to TAT
[9] = TAT-fused peptides, 10 μm peptide and 15 μM thio-polyglutamine

Chain of Q81-YFP (as listed by the source): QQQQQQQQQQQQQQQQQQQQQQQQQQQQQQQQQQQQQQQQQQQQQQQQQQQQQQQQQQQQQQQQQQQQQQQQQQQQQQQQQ
Chain of thio-Q62 (as listed by the source): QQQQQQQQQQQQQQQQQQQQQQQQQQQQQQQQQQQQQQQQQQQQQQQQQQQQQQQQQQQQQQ

WKWWPGIFD
effect on cell death (in words) [1]: no effect | Ability to Inhibit Aggregation [2, 7]: ++++ (++++ = full inhibition) | effect on aggregation in cells (in words) ([3]; peptide added to cells): no effect

WKWWPGIFD-GGRRRRRRRR (WKWWPGIFDGGRRRRRRRR)
effect on cell death (in words) [1]: inhibits | inhibition of in vitro polyglutamine aggregation [4]: inhibits | effect on aggregation in cells (in words) ([3]; peptide added to cells): inhibits

WKWWPGIFD-TAT (WKWWPGIFDGGYGRKKRRQRRR)
inhibition of cell death [1, 8]: 39% | percentage of transfected cells that died ([1]; within 72 hours): 6.0% | Ability to Inhibit Aggregation [2, 9]: +++ (+++ = 75% inhibition) | percentage of transfected cells with Q81-YFP aggregates ([3]; peptide added to cells): 22.1% | inhibition of Q81-YFP aggregation [3, 8]: 32%

WKWWPWKWW
Ability to Inhibit Aggregation [2, 7]: +++ (+++ = 75% inhibition)

WKWWPWKWW-TAT (WKWWPWKWWGGYGRKKRRQRRR)
Ability to Inhibit Aggregation [2, 9]: ++++ (++++ = full inhibition)

WKWWVWKWW
Ability to Inhibit Aggregation [2, 7]: ++ (++ = 50% inhibition)

WKWWVWKWWP
Ability to Inhibit Aggregation [2, 7]: ++++ (++++ = full inhibition)

WKWWVWKWWP-TAT (WKWWVWKWWPGGYGRKKRRQRRR)
Ability to Inhibit Aggregation [2, 9]: ++++ (++++ = full inhibition)

WLWWPGIFD
Ability to Inhibit Aggregation [2, 7]: ++ (++ = 50% inhibition)

WPIWSKGNDWF [SCR, reference compound]
inhibition of Q57-YFP induced cell death [5]: does not inhibit cell death | inhibition of thio-Q62 aggregation (in words) ([2]; turbidity at 405 nm, FIG. 2): did not inhibit aggregation | effect on turbidity of nonpathologic thio-Q19 or 35 [6]: no effect

WVWWPGIFD
Ability to Inhibit Aggregation [2, 7]: +++ (+++ = 75% inhibition)

WWWWPGIFD
Ability to Inhibit Aggregation [2, 7]: ++ (++ = 50% inhibition)
